Our source for the IC50 values is ChEMBL document CHEMBL1136569, “Quinolone-based IMPDH inhibitors: introduction of basic residues on ring D and SAR of the corresponding mono, di and benzofused analogues” (Bioorg Med Chem Lett, 2003).

Experiment [1] deals with Inosine-5'-monophosphate dehydrogenase 2 (Homo sapiens, UniProt P12268). The experiment is described as follows: Inhibitory activity against inosine monophosphate dehydrogenase IMPDH II.
The test system of another experiment is CCRF-CEM. The experiment is described as follows: Inhibitory activity against proliferation of CEM cell line. It is filed as functional, cell-based, Homo sapiens.
A short description of experiment [2]: Inhibitory activity against proliferation of peripheral blood mononuclear cells. Format: functional, Homo sapiens.

Each structure is given as a SMILES string.

What is called IC50 is the concentration that gives 50% inhibition. High values mean weaker potency, low ones greater potency.

In experiment [1], `COc1cc2nc(-c3cccc(N4CCOCC4)c3)cc(O)c2cc1-c1cnco1` displayed a concentration for half-maximal inhibition (IC50) of less than 50 nM. In the case of `COc1cc2nc(-c3ccc4c(c3)C(N(C)C(=O)CN3CCOCC3)CC4)cc(O)c2cc1-c1cnco1` (stereo not given), the IC50 was determined as 1800 nM in the experiment with CCRF-CEM (Homo sapiens, CCRF-CEM) and 18 nM in experiment [1].

Turning to `COc1cc2nc(-c3ccc4c(c3)C(N(C)C(C)=O)CC4)cc(O)c2cc1-c1cnco1` (stereo not given), the half-inhibitory concentration (IC50) came to 1100 nM in the experiment on CCRF-CEM (Homo sapiens, CCRF-CEM) and 18 nM in experiment [1]. Turning to `COc1cc2nc(-c3ccc4c(c3)C(N(C)C)CC4)cc(O)c2cc1-c1cnco1` (single isomer, unassigned; Enantiomer A), the IC50 was 270 nM with CCRF-CEM (ccrf-cem), less than 5 nM in experiment [1] and 120 nM in experiment [2]. Consider `COc1cc2nc(-c3ccc4c(c3)C(N(C)C)CCO4)cc(O)c2cc1-c1cnco1` (stereo not given), for which the half-maximal inhibitory concentration (IC50) in the experiment on CCRF-CEM (Homo sapiens, CCRF-CEM) was found to be 720 nM; in experiment [1], 21 nM. The like results for `COc1cc2nc(-c3ccc(N4CCOCC4)cc3)cc(O)c2cc1-c1cnco1` were, in that order, 1100 nM and 21 nM. The corresponding values for `COc1cc2nc(-c3ccc4c(c3)C([N+](C)(C)C)CC4)cc(O)c2cc1-c1cnco1` (stereo not given) are greater than 10000 nM and 30 nM.

As for `COc1cc2nc(-c3ccc4c(c3)C(N(C)C)CC4)cc(O)c2cc1-c1cnco1` (single isomer, unassigned; enantiomer B), the IC50 in the experiment on CCRF-CEM (ccrf-cem) was 550 nM; in experiment [1], less than 5 nM; in experiment [2] it was 320 nM. For `COc1c(C)c2c(c(O)c1C/C=C(\C)CCC(=O)O)C(=O)OC2` [MYCOPHENOLIC ACID], 600 nM corresponded to half-maximal inhibition in experiment [2] (Homo sapiens) (IC50). On to `COc1cc2nc(-c3ccc4c(c3)C(N3CCC3)CC4)cc(O)c2cc1-c1cnco1` (stereo not given), for which the IC50 in the experiment on CCRF-CEM (Homo sapiens, CCRF-CEM) was 800 nM; in experiment [1] it was 6 nM.

For the compound `COc1cc2nc(-c3ccc4c(c3)C(N3CCCC3)CC4)cc(O)c2cc1-c1cnco1` (stereo not given), the IC50 with CCRF-CEM (Homo sapiens, CCRF-CEM) worked out at 670 nM; in experiment [1] it was 13 nM. The like results for `COc1cc2nc(-c3ccc(C)c(OCCN4CCOCC4)c3)cc(O)c2cc1-c1cnco1` were, in that order, 600 nM and less than 5 nM. The corresponding values for `COc1cc2nc(-c3ccc4c(c3)C(O)CCC4)cc(O)c2cc1-c1cnco1` (stereo not given) are 3400 nM and 83 nM.

For the compound `COc1cc2nc(-c3ccc4c(c3)C(N(C)C)CC4)cc(O)c2cc1-c1cnco1` (stereo in doubt; 27), the 50% inhibitory concentration (IC50) with CCRF-CEM (ccrf-cem) was found to be 290 nM; in experiment [1], 6 nM. On to `COCC(=O)N(C)C1CCc2ccc(-c3cc(O)c4cc(-c5cnco5)c(OC)cc4n3)cc21` (stereo not given), for which the half-maximal inhibitory concentration (IC50) in the experiment on CCRF-CEM (Homo sapiens, CCRF-CEM) was 1100 nM; in experiment [1], 12 nM. Regarding `CNC1CCc2ccc(-c3cc(O)c4cc(-c5cnco5)c(OC)cc4n3)cc21` (stereo not given), the IC50 in the experiment with CCRF-CEM (Homo sapiens, CCRF-CEM) was 1600 nM; in experiment [1], 12 nM. For `COc1cc(NC(=O)Nc2cccc(CNC(=O)O[C@H]3CCOC3)c2)ccc1-c1cnco1` [MERIMEPODIB], the IC50 in experiment [2] (Homo sapiens) was found to be 170 nM. In the case of `COc1cc2nc(-c3ccc(N4CCN(C)CC4)cc3)cc(O)c2cc1-c1cnco1`, the concentration for half-maximal inhibition (IC50) stood at 2200 nM in the experiment on CCRF-CEM (Homo sapiens, CCRF-CEM) and 53 nM in experiment [1]. The like results for `COc1cc2nc(-c3ccc4c(c3)[C@@H](N(C)C)[C@H](OC)C4)cc(O)c2cc1-c1cnco1` were, in that order, 700 nM and 15 nM. The like results for `COc1cc2nc(-c3ccc4c(c3)C(=O)CCC4)cc(O)c2cc1-c1cnco1` were, in that order, 520 nM and less than 10 nM. The corresponding values for `COc1cc2nc(-c3ccc(C)c(N4CCCC4)c3)cc(O)c2cc1-c1cnco1` are 780 nM and 15 nM. On to `COc1cc2nc(-c3ccc4c(c3)N(C(C)=O)CCO4)cc(O)c2cc1-c1cnco1`, for which the 50% inhibitory concentration (IC50) was 1300 nM in the experiment on CCRF-CEM (Homo sapiens, CCRF-CEM) and 14 nM in experiment [1].

Regarding `COc1cc2nc(-c3ccc(OC)c(N4CCN(C)CC4)c3)cc(O)c2cc1-c1cnco1`, the 50% inhibitory concentration (IC50) turned out to be 10000 nM in the experiment with CCRF-CEM (Homo sapiens, CCRF-CEM) and 140 nM in experiment [1]. Take `COc1cc2nc(-c3ccc(C)c(N4CCOCC4)c3)cc(O)c2cc1-c1cnco1`: the 50% inhibitory concentration (IC50) came to 650 nM in the experiment with CCRF-CEM (Homo sapiens, CCRF-CEM) and 5 nM in experiment [1]. In the case of `COc1cc2nc(-c3ccc4c(c3)C(N(C)C(=O)Cn3ccnc3)CC4)cc(O)c2cc1-c1cnco1` (stereo not given), the IC50 was greater than 10000 nM in the experiment on CCRF-CEM (Homo sapiens, CCRF-CEM) and 68 nM in experiment [1]. The corresponding values for `COc1cc2nc(-c3ccc4c(c3)CN(C)C4)cc(O)c2cc1-c1cnco1` are 1100 nM and 14 nM.

With `COc1cc2nc(-c3cccc(N4CCN(C)CC4)c3)cc(O)c2cc1-c1cnco1`, the IC50 in the experiment with CCRF-CEM (Homo sapiens, CCRF-CEM) is 1700 nM; in experiment [1] it was 16 nM. The corresponding values for `COc1cc2nc(-c3cccc(N4CCCC4)c3)cc(O)c2cc1-c1cnco1` are 2700 nM and 25 nM.

Consider `COc1cc2nc(-c3ccc4c(c3)CCC4N(C)C)cc(O)c2cc1-c1cnco1` (stereo not given), for which the half-maximal inhibitory concentration (IC50) in the experiment with CCRF-CEM (Homo sapiens, CCRF-CEM) was 4100 nM; in experiment [1] it was 55 nM. In experiment [1], `COc1cc2nc(-c3ccc4c(c3)C(OC(=O)N(C)C)CC4)cc(O)c2cc1-c1cnco1` (stereo not given) displayed an IC50 of 11 nM. Turning to `COc1cc2nc(-c3ccc4c(c3)C(N(C)C)CCC4)cc(O)c2cc1-c1cnco1` (stereo not given), the 50% inhibitory concentration (IC50) was found to be 370 nM with CCRF-CEM (Homo sapiens, CCRF-CEM) and 15 nM in experiment [1]. For the compound `COc1cc2nc(-c3ccc4c(c3)C(O)CC4)cc(O)c2cc1-c1cnco1` (stereo not given), the IC50 is 3100 nM in the experiment on CCRF-CEM (Homo sapiens, CCRF-CEM) and 28 nM in experiment [1]. The like results for `COc1cc2nc(-c3ccc4c(c3)C(N3CCCC3)CCO4)cc(O)c2cc1-c1cnco1` (stereo not given) were, in that order, 1400 nM and 33 nM. In the case of `COc1cc2nc(-c3ccc(C)c(N4CCN(C)CC4)c3)cc(O)c2cc1-c1cnco1`, the IC50 with CCRF-CEM (Homo sapiens, CCRF-CEM) worked out at 1100 nM; in experiment [1], 26 nM. The corresponding values for `COc1cc2nc(-c3ccc(C)c(OCC4CCCO4)c3)cc(O)c2cc1-c1cnco1` (stereo not given) are 710 nM and less than 5 nM. On to `COc1cc2nc(-c3ccc4c(c3)C(N3CCOCC3)CC4)cc(O)c2cc1-c1cnco1` (stereo not given), for which the IC50 with CCRF-CEM (Homo sapiens, CCRF-CEM) turned out to be 1100 nM; in experiment [1] it was 20 nM.
